pIC50: −log10 of the molar value. Calls of active or inactive are those of the source. The rule behind the calls is not given here.
What was measured:
[1] = molecular target: Dual specificity mitogen-activated protein kinase kinase 1 (Homo sapiens) (UniProt Q02750); assay: Inhibition of MEK1 (unknown origin) at 1 uM relative to control
[2] = Clearance in CD-1 mouse at 1 mg/kg, iv measured upto 8 hrs by LC-MS analysis; type: ADME, organism-based; settings: in vivo
[3] = molecular target: Serine/threonine-protein kinase 17A (Homo sapiens) (UniProt Q9UEE5); assay: Inhibition of DRAK1 (unknown origin) at 1 uM relative to control
[4] = Volume of distribution at steady state in Sprague-Dawley rat at 1 mg/kg, iv measured upto 8 hrs by LC-MS analysis; type: ADME, organism-based; settings: in vivo, read-out: Vdss
[5] = molecular target: Tyrosine-protein kinase CSK (Homo sapiens) (UniProt P41240); assay: Inhibition of CSK (unknown origin) at 1 uM relative to control
[6] = molecular target: Tyrosine-protein kinase ITK/TSK (Homo sapiens) (UniProt Q08881); assay: Inhibition of Itk (unknown origin) at 1 uM relative to control
[7] = molecular target: Proto-oncogene tyrosine-protein kinase Src (Homo sapiens) (UniProt P12931); assay: Inhibition of Src (unknown origin) (1 to 530 residues) at 1 uM relative to control
[8] = organism: Homo sapiens; assay: Inhibition of PKB (unknown origin) at 1 uM relative to control
[9] = system: Mus musculus; assay: Antiarthritic activity against collagen-induced arthritis DBA/1J mouse model assessed as MCP-5 level in serum at 50 mg/kg, po measured for 4 hrs by luminex analysis (reference value: 62.8 +/- 12.4 ng/ml); type: functional
[10] = molecular target: Serine/threonine-protein kinase MARK1 (Homo sapiens) (UniProt Q9P0L2); assay: Inhibition of MARK1 (unknown origin) at 1 uM relative to control
[11] = molecular target: LIM domain kinase 1 (Homo sapiens) (UniProt P53667); assay: Inhibition of LIMK1 (unknown origin) at 1 uM relative to control
[12] = molecular target: Ephrin type-A receptor 5 (Homo sapiens, UniProt P54756); assay: Inhibition of EPHA5 (unknown origin)
[13] = molecular target: cGMP-dependent protein kinase 1 (Homo sapiens) (UniProt Q13976); assay: Inhibition of PKG1 (unknown origin) at 1 uM relative to control
[14] = molecular target: Serine/threonine-protein kinase Sgk1 (Homo sapiens) (UniProt O00141); assay: Inhibition of SGK (unknown origin) at 1 uM relative to control
[15] = Half life in Sprague-Dawley rat at 5 mg/kg, po measured upto 24 hrs by LC-MS analysis; type: ADME, organism-based; settings: in vivo
[16] = molecular target: Serine/threonine-protein kinase 10 (Homo sapiens) (UniProt O94804); assay: Inhibition of LOK (unknown origin) at 1 uM relative to control
[17] = molecular target: Ephrin type-B receptor 4 (Homo sapiens) (UniProt P54760); assay: Inhibition of EphB4 (unknown origin) at 1 uM relative to control
[18] = molecular target: G protein-coupled receptor kinase 5 (Homo sapiens) (UniProt P34947); assay: Inhibition of GRK5 (unknown origin) at 1 uM relative to control
[19] = system: Mus musculus; assay: Antiarthritic activity against collagen-induced arthritis DBA/1J mouse model assessed as bone degradation by measuring lesion score in hind paw at 50 mg/kg, po administered twice daily for 14 days by histological analysis; type: functional, organism-based; settings: time 14.0 day
[20] = system: Mus musculus; assay: Antiarthritic activity against collagen-induced arthritis DBA/1J mouse model assessed as reduction in MX2 expression in paw at 50 mg/kg, po measured for 2 weeks by RT-PCR analysis; type: functional, organism-based
[21] = molecular target: Serine/threonine-protein kinase PAK 2 (Homo sapiens) (UniProt Q13177); assay: Inhibition of PAK2 (unknown origin) at 1 uM relative to control
[22] = molecular target: Mitogen-activated protein kinase kinase kinase 3 (Homo sapiens, UniProt Q99759); assay: Inhibition of MAP3K3 (unknown origin)
[23] = molecular target: MAP kinase-interacting serine/threonine-protein kinase 2 (Homo sapiens, UniProt Q9HBH9); assay: Inhibition of MNK2 (unknown origin)
[24] = molecular target: Serine/threonine-protein kinase Chk1 (Homo sapiens) (UniProt O14757); assay: Inhibition of CHK1 (unknown origin) at 1 uM relative to control
[25] = Tmax in Sprague-Dawley rat at 5 mg/kg, po measured upto 24 hrs by LC-MS analysis; type: ADME, organism-based; settings: in vivo
[26] = AUC (0 to 24 hrs) in CD-1 mouse at 1 mg/kg, iv measured upto 8 hrs by LC-MS analysis; type: ADME, organism-based; settings: in vivo
[27] = system: Mus musculus; assay: Antiarthritic activity against collagen-induced arthritis DBA/1J mouse model assessed as LIF level in serum at 50 mg/kg, po measured for 4 hrs by luminex analysis (reference value: 696 +/- 108 ng/ml); type: functional
[28] = molecular target: Testis-specific serine/threonine-protein kinase 2 (Homo sapiens) (UniProt Q96PF2); assay: Inhibition of TSSK2 (unknown origin) at 1 uM relative to control
[29] = molecular target: Angiopoietin-1 receptor (Homo sapiens) (UniProt Q02763); assay: Inhibition of Tie2 (unknown origin) at 1 uM relative to control
[30] = molecular target: Mitogen-activated protein kinase 11 (Homo sapiens) (UniProt Q15759); assay: Inhibition of SAPK2b (unknown origin) at 1 uM relative to control
[31] = molecular target: Mitogen-activated protein kinase 1 (Homo sapiens) (UniProt P28482); assay: Inhibition of MAPK1 (unknown origin) at 1 uM relative to control
[32] = molecular target: Serine/threonine-protein kinase D2 (Homo sapiens) (UniProt Q9BZL6); assay: Inhibition of PKD2 (unknown origin) at 1 uM relative to control
[33] = molecular target: Serine/threonine-protein kinase WNK3 (Homo sapiens) (UniProt Q9BYP7); assay: Inhibition of WNK3 (unknown origin) at 1 uM relative to control
[34] = molecular target: Ephrin type-A receptor 2 (Homo sapiens) (UniProt P29317); assay: Inhibition of EphA2 (unknown origin) at 1 uM relative to control
[35] = molecular target: Proto-oncogene tyrosine-protein kinase receptor Ret (Homo sapiens) (UniProt P07949); assay: Inhibition of Ret (unknown origin) at 1 uM relative to control
[36] = molecular target: Eukaryotic elongation factor 2 kinase (Homo sapiens) (UniProt O00418); assay: Inhibition of eEF2K (unknown origin) at 1 uM relative to control
[37] = molecular target: Serine/threonine-protein kinase Nek6 (Homo sapiens) (UniProt Q9HC98); assay: Inhibition of NEK6 (unknown origin) at 1 uM relative to control
[38] = molecular target: Receptor-type tyrosine-protein kinase FLT3 (Homo sapiens) (UniProt P36888); assay: Inhibition of Flt3 (unknown origin) at 1 uM relative to control
[39] = molecular target: Dual specificity mitogen-activated protein kinase kinase 6 (Homo sapiens) (UniProt P52564); assay: Inhibition of MKK6 (unknown origin) at 1 uM relative to control
[40] = molecular target: Calcium/calmodulin-dependent protein kinase type 1 (Homo sapiens) (UniProt Q14012); assay: Inhibition of CaMK1 (unknown origin) at 1 uM relative to control

Serine/threonine-protein kinase D2 (Homo sapiens), sequence (Q9BZL6 whole entry): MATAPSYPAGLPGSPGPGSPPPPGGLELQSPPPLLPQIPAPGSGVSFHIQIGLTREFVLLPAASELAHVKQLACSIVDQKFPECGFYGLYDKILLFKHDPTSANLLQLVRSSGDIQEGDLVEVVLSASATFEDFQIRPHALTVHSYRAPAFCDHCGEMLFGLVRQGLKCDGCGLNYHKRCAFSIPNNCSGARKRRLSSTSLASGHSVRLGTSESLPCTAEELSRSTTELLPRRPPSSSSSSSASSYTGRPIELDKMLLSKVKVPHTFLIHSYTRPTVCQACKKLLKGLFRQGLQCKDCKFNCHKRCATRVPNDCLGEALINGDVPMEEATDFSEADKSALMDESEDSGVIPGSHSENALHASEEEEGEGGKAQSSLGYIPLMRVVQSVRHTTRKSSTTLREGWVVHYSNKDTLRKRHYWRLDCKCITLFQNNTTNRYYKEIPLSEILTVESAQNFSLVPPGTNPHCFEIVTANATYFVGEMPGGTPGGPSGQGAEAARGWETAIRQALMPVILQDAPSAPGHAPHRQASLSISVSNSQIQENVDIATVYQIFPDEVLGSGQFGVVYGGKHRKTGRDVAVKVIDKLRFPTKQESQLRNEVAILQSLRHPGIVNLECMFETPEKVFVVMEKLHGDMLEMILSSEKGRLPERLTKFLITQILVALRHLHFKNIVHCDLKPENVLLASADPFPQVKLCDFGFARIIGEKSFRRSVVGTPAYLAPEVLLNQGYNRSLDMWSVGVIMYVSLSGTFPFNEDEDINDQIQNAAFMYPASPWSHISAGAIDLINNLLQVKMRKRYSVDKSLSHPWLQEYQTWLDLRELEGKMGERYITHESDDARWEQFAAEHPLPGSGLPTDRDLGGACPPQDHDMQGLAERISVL
Serine/threonine-protein kinase Sgk1 (Homo sapiens), sequence (O00141 whole entry): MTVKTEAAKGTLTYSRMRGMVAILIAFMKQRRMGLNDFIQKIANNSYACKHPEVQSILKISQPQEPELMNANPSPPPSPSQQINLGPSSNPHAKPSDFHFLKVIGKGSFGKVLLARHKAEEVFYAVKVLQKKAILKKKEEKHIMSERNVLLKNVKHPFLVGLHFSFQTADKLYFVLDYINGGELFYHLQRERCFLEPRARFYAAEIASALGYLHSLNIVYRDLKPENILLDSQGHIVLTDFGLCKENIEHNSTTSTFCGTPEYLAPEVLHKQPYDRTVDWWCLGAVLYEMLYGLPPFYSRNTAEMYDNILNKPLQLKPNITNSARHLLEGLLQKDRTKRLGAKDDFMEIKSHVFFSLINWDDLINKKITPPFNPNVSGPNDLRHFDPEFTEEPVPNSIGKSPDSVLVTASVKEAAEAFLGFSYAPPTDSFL
cGMP-dependent protein kinase 1 (Homo sapiens), sequence (Q13976 whole entry): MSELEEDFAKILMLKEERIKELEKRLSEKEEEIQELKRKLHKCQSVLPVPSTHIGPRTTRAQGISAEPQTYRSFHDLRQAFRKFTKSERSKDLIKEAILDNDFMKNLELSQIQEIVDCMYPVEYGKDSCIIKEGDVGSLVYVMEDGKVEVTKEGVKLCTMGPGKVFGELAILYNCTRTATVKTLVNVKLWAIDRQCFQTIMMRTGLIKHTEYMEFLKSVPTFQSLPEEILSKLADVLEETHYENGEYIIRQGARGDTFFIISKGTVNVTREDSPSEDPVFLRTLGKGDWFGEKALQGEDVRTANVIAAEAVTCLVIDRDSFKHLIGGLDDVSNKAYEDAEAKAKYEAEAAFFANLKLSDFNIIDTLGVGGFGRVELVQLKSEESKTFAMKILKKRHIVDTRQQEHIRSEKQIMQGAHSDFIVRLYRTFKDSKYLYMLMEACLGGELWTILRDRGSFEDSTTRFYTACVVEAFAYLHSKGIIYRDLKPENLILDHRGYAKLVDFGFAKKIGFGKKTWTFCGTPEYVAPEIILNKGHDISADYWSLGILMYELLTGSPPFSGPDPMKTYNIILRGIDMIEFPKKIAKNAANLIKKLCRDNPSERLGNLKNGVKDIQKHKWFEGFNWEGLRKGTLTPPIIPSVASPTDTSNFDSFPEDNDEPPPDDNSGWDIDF
Serine/threonine-protein kinase MARK1 (Homo sapiens), sequence (Q9P0L2 whole entry, looked up, the tested form may be a part): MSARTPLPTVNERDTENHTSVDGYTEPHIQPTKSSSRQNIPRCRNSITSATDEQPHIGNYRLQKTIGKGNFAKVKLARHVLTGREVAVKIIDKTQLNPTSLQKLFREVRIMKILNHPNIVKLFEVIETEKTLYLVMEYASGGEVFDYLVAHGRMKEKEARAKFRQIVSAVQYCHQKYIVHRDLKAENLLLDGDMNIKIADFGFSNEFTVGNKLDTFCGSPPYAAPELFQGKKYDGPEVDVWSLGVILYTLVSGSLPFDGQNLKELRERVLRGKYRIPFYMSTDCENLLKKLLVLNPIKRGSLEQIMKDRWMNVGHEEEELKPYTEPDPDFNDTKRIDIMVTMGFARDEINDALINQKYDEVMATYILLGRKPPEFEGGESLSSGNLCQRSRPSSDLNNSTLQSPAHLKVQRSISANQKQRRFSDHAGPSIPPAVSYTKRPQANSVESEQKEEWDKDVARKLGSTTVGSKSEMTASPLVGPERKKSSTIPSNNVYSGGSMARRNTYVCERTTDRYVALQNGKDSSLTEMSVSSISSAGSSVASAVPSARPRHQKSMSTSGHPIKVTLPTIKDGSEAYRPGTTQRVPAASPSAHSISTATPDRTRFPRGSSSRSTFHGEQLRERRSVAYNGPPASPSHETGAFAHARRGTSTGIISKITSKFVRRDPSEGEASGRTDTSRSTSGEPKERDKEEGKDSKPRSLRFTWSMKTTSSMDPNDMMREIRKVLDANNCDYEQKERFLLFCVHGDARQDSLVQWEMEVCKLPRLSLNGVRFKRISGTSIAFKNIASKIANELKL
Proto-oncogene tyrosine-protein kinase receptor Ret (Homo sapiens), sequence (P07949 whole entry): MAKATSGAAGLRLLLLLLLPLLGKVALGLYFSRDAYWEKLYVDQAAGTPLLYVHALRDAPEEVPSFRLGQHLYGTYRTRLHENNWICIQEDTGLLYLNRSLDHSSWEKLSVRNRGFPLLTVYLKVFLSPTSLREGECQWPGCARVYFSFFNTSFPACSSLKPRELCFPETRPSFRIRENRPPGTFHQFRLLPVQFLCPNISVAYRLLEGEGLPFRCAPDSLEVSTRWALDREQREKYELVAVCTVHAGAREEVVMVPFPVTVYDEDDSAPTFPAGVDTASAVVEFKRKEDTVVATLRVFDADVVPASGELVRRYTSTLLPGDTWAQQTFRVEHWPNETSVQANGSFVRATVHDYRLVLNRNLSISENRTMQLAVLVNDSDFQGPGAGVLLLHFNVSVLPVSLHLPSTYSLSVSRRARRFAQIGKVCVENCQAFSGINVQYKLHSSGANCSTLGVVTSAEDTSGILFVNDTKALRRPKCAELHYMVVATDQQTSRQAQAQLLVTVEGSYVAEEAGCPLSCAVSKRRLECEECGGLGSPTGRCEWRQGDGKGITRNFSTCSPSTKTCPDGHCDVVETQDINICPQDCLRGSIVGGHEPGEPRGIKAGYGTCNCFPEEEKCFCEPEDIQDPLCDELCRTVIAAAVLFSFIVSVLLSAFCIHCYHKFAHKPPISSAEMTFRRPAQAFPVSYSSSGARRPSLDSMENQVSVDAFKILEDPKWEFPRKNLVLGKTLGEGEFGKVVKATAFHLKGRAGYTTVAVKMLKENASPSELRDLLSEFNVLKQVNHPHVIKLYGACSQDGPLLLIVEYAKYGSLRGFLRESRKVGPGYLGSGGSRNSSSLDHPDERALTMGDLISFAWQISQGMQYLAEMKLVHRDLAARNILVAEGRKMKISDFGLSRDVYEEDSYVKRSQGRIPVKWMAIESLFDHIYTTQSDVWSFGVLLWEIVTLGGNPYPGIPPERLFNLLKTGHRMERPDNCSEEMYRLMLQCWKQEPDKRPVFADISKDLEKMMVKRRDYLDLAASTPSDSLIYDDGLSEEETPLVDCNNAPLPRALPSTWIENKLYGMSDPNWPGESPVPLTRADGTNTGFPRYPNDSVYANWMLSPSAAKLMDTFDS
Serine/threonine-protein kinase 10 (Homo sapiens), sequence (O94804 whole entry, looked up): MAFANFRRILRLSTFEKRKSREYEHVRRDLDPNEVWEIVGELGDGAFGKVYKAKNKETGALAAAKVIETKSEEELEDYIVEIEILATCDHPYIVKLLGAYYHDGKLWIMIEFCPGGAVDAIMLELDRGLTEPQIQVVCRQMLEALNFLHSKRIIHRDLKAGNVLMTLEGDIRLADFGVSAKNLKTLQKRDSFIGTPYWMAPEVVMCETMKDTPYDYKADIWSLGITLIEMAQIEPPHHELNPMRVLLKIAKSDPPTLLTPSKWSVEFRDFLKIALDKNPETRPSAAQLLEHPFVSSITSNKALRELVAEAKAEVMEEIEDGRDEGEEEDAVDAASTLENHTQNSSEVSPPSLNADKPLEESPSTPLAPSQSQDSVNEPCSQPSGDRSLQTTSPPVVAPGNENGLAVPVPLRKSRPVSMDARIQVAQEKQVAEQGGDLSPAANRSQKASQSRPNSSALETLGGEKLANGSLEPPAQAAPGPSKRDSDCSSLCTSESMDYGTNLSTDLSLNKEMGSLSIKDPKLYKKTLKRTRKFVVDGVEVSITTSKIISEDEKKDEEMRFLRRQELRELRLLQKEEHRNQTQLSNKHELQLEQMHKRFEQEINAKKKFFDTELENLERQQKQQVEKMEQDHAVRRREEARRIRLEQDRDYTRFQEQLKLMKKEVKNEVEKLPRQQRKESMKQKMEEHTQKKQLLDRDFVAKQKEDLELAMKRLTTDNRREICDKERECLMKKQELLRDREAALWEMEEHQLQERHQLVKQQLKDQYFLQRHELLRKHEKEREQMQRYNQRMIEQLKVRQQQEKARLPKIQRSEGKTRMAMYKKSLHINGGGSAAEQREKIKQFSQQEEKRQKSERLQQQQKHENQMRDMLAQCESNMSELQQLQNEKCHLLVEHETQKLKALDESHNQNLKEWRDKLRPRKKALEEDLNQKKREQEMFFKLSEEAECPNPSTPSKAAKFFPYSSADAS

inhibition [1]: -3% | clearance [2]: 48.3 mL/min/kg | inhibition [3]: 26% | Vd [4]: 1.8 L/kg | inhibition [5]: 3% | inhibition [6]: -4% | inhibition [7]: 32% | inhibition [8]: -3% | inhibition [10]: 7% | inhibition [11]: -1% | pIC50 [12]: < 5.00 | inhibition [13]: -1% | inhibition [14]: 7% | half-life [15]: 3.9 h | inhibition [16]: -3% | inhibition [17]: 5% | inhibition [18]: -10% | inhibition [21]: 3% | pIC50 [22]: < 5.00 | pIC50 [23]: < 5.00 | inhibition [24]: 10% | Tmax [25]: 2.2 h | AUC [26]: 347 ng·h/mL | inhibition [28]: -5% | inhibition [29]: -2% | inhibition [30]: -4% | inhibition [31]: 1% | inhibition [32]: -10% | inhibition [33]: -2% | inhibition [34]: -9% | inhibition [35]: 9% | inhibition [36]: -4% | inhibition [37]: -4% | inhibition [38]: 58% | inhibition [39]: -6% | inhibition [40]: -4%
SMILES: O=C(Nc1nc2cccc(-c3ccc(CN4CCS(=O)(=O)CC4)cc3)n2n1)C1CC1 [FILGOTINIB]
Activity [9]: 36.4 ng/mL | Activity [19]: Active | Activity [20]: Active | Activity [27]: 743.8 ng/mL

— ChEMBL document CHEMBL5678809, “Preclinical characterization of GLPG0634, a selective inhibitor of JAK1, for the treatment of inflammatory diseases” (J Immunol, 2013)
